In patent US11484484B2, “Composition for alleviating skin barrier dysfunction” (LG HOUSEHOLD & HEALTH CARE LTD., priority 2018, dated 2022):
Entries after “also recorded” stand apart in the source; their conditions may differ.

Assays:
LC3-II, p62/SQSTM1 = experiment: Autophagosome synthesis mechanism: co-treatment with bafilomycin A1, LC3-II and p62 western blotting; type: cell-based, human
Excerpt: (§1) HaCaT cells were inoculated into a 60 mm plate at a concentration of 8×10^5 cells and independently treated with hydroxycinnamic acid, isoamyl acetate, and betaine the next day, and then the cells were eluted with a 5× lysis buffer to obtain proteins. Cell debris was removed by centrifugation and quantified using a BCA protein assay kit (Pierce, USA). The cell-extracted proteins were isolated using a 4%-15% SDS-PAGE gel (Bio-Rad, USA) and transferred to a nitrocellulose membrane (Life Technologies, New Zealand). The cells were then blocked with a TBST buffer containing 3% BSA for 1 hour and thereupon reacted in a buffer solution containing primary antibodies at 4° C. for 1 day. The membrane was washed with TBST, reacted with peroxidase-conjugated secondary antibodies, and then colored using enhanced chemiluminescence (Amersham, UK), and the immune-reactive bands were confirmed with the Fusion FX 5 image system (Vilber Lourmat, France).
Therefore, in order to investigate a mechanism by which the autophagosomes are increased by way of betaine treatment, the cells were treated with bafilomycin A1 (Baf. A1), which is known as a lysosomal activity inhibitor, together with betaine, and the degree of LC3-II production was confirmed by western blotting analysis.

[1] = system: reconstructed human epidermis model (Neoderm-E); experiment: Epidermal thickness in 3D artificial skin model; type: cell-based; conditions: 1% cream formulation; for Increase relative to Control: epidermal thickness ratio
Method: (§2) A reconstructed human epidermis model (Neoderm-E, Tego Science, Korea) was transferred to a 6-well plate and stabilized in 2 mL of a growth medium (Tego Science, Korea) for 24 hours, and the cream-type hydroxycinnamic acid, isoamyl acetate, and betaine were applied to the artificial skin at each concentration. After culturing for 24 hours, the hydroxycinnamic acid, isoamyl acetate, and betaine cream applied on the artificial skin were washed with phosphate buffer saline (PBS), and then the tissue was disrupted using a RIPA buffer (50 mM Tris-HCl, pH 7.4, 150 mM NaCl, 1% NP-40) containing Protease Inhibitor Cocktails (ThermoFisher Scientific, USA) by sonication. The tissue-extracted proteins were analyzed for the autophagic activity of keratinocytes in the tissue by western blotting analysis. 1% creams of hydroxycinnamic acid, isoamyl acetate, and betaine were applied on the artificial skin, followed by H&E staining after 1 week to confirm the increase in thickness of the epidermis.
Next, the cream formulations of 1% betaine, 1% hydroxycinnamic acid, and 1% isoamyl acetate were applied to the artificial skin, and changes in the thickness of the epidermis were measured after […] staining of the artificial skin tissue.

[2] = system: reconstructed human epidermis model (Neoderm-E); experiment: LC3-II production in 3D artificial skin model; type: cell-based; conditions: 1% cream formulation, after 24 hours
Method: as §2
In order to confirm whether the differentiation in the epidermis is promoted by the effect of promoting autophagy by way of betaine, hydroxycinnamic acid, and isoamyl acetate, a 3D artificial skin model was used as in Example 5. […] After 24 hours, the degree of LC3-II production was measured through western blotting analysis to determine whether autophagy in the epidermis was promoted.

AKT-mTOR-S6 pathway = experiment: Phosphorylation of AKT-mTOR-S6 pathway by western blotting; type: cell-based, human; conditions: HaCaT cells
Excerpt: as §1
In previous studies, betaine—homocysteine methyltransferase (BHMT) has been reported to reduce the amount of homocysteine in a betaine-dependent manner. In one study, homocysteine was reported to promote the activity of mTORC1, an enzyme that inhibits autophagy. Thus, in order to find a mechanism by which autophagy is promoted by betaine, an experiment was conducted to identify related upstream signaling factors. […]

[3] = system: HaCaT cells introduced with the GFP-LC3 vector; experiment: Screening for autophagy activation: GFP-LC3 puncta quantification; type: cell-based, human; conditions: for proportion of cells with increased GFP-LC3 puncta vesicles: fluorescence microscopy
Method: A GFP (green fluorescence protein)-conjugated microtubule-binding protein 1 light chain 3 (LC3) expression vector (Cell Biolabs, USA) was introduced into HaCaT cells using Lipofectamine 2000 (Invitrogen, USA), which is a gene transfer reagent, and the resultant was cultured for 12 hours in a condition containing 10% FBS and then treated with candidate compounds expected to promote autophagy, which was selected from a library of single compounds derived from natural substances, at each concentration in the medium. Subsequently, the evaluation was performed by fluorescence microscopy (Leica Microsystems, USA). In order to quantify the induction of autophagy, 100 GFP-positive cells in which puncta autophagosomes were formed (punctae=5) were counted using fluorescence microscopy. In order to improve the barrier function by promoting epidermal differentiation through the activation of autophagy, which is reduced due to aging or external stimuli, a search was conducted starting from a library of single compounds derived from natural substances for those that promote autophagic activity of keratinocytes. Specifically, as in the method of Example 3, candidate compounds expected to promote autophagy were treated to HaCaT cells introduced with the GFP-LC3 vector. Thereafter, the number of cells with increased GFP-LC3 puncta vesicles in the cytoplasm was increased as GFP was conjugated to LC3, which was converted into a membrane-bound form when autophagy was induced in each cell, was compared.

HaCaT cells = type: cell-based; conditions: 10 μg/mL, 50 μg/mL and 100 μg/mL
LC3-II = LC3-II production by western blotting in keratinocytes; type: cell-based, human; conditions: HaCaT cells
Excerpt: as §1
The cytotoxicity of betaine on keratinocytes was confirmed, and the results of Experimental Example 1 were confirmed by the western blotting analysis of Example 4 to determine the degree of production of LC3-II converted as it entered into the double membranes of the autophagosomes. […] Additionally, the cells were treated with 50 μg/mL betaine and the amount of LC3-II conversion per hour was observed.

[4] = general description of the substance; cited from earlier work

Compound | amount of p62/SQSTM1 (p62) protein (LC3-II, p62/SQSTM1; betaine treatment, western blotting) | amount of LC3-II with bafilomycin A1 together with betaine compared to betaine alone (LC3-II, p62/SQSTM1; co-treatment with lysosomal activity inhibitor bafilomycin A1) | Thickness of Epidermis [1] [μm] | epidermal thickness increase compared to the control group [1] [%] | Increase relative to Control [1] | autophagy (degree of LC3-II production) in the epidermis [2] | mTOR signals (degree of phosphorylation of the AKT-mTOR-S6 pathway) (AKT-mTOR-S6 pathway) | number of cells with increased GFP-LC3 puncta vesicles, increase compared to the untreated group [3] [%] | proportion of cells with increased GFP-LC3 puncta vesicles [3] [%] | cytotoxicity (HaCaT cells) | amount of LC3-II conversion, from 12 hours (LC3-II; 50 μg/mL, 12 hours) | amount of LC3-II conversion, after 24 hours (LC3-II; 50 μg/mL, 24 hours) | amount of LC3-II conversion, until 6 hours (LC3-II; 50 μg/mL, until 6 hours) | amount of LC3-II by concentration (LC3-II; 10, 50, 100 μg/mL, western blotting) | solubility [4]
C[N+](C)(C)CC(=O)[O-] [betaine, trimethylglycine] | reduced; also recorded: decrease | further increased | 74 | 19 | 1.19 | autophagy was increased | not possible to observe a significant difference; also recorded: no significant difference | 18.75 | 25 | no cytotoxicity was observed | the amount of conversion increased | the highest conversion was observed; also recorded: conversion mostly occurred | a significant increase was not observed | increased as the concentration increased | –
CC(=O)OCCC(C)C [isoamyl acetate] | – | – | 85 | 37 | 1.37 | autophagy was increased | – | – | 16.4 | – | – | – | – | – | not well soluble in water, but soluble in alcohol and organic solvents
